The results in this text go back to PMC11061149, “Protein mimetic 2D FAST rescues alpha synuclein aggregation mediated early and post disease Parkinson’s phenotypes” (Nature Communications, 2024).

SMILES strings stand for the structures. Several values for one entry are separate records, joined by “and”; a condition that tells them apart may be missing. Equal entries are not always repeated.

One data set has as its system UA196 worms. Description: ROS level in UA196 worms (H2DCFDA dye). The data set is classed as in vivo, C. elegans. The procedure:
The worm strains were bleached at the same time and the eggs were incubated on PLATE 1. On day two, the worms were divided into two batches. One half of the worms were transferred (using M9 buffer) on PLATE 2 (without ligand) and the second half of the worms were transferred to PLATE 3 (with ligand). The concentration of the ligands was 50 µM as described in the main manuscript. On day four, the ligand (10–50 μM in M9 buffer with 0.1%-0.5% DMSO, v/v) was spotted again atop the PLATE 3 at 20 °C. The worms were incubated on PLATE 2 or PLATE 3 up to day eight at 20 °C in an incubator with constant humidity. On day eight, the worms were transferred into 1.7 mL microcentrifuge tubes using M9 buffer (1 mL) and washed with M9 buffer (1 mL and three times) by centrifugation for 2 min at 700xg and 20 °C. Subsequently, a total of 100 worms/well were transferred to a Costar 96-well black plate (Corning, Kennebunk, ME) containing 100 μL solution, including M9 buffer (89 μL), worm solution (10 μL and 100 worms), and 2’,7’-dichlorofluorescein diacetate (H2DCFDA) dye (1 μL, 50 μM, stock solution = 5 mM in cell culture grade DMSO, 99% pure). As a control, 99 μL of M9 buffer and 1 μL of 5 mM H2DCFDA reaction solution was placed in the wells. Subsequently, the Costar 96-well plate was gently shaken for 30 sec at 20 °C and the fluorescence intensity was measured (λex = 485 nm and λem = 530 nm) at multiple time points (0 to 120 min) using the Infinite M200 Pro Plate Reader (Tecan, Männedorf, Switzerland)[65],[89].
For confocal imaging, the same UA196 worms (in the absence and presence of ligands) used for the quantification of ROS, were transferred from the 96-well plate into PLATE 2, air-dried into the sterile laminar flow hood. The worms ( ~ 10 worms) were transferred to a cover slide containing an anesthetic (40 mM sodium azide) and mounted on a glass microscope slide containing 2% agarose pads for the confocal imaging as described in the previous sections. This experiment consisted of three biological replicates and each biological replicate consisted of three technical replicates.

Data set [1] has as its system HEK cells expressing αSA53T-YFP. Kind of data set: MTT reduction assay of HEK cells treated with αS aggregated with or without ligand. The data set is classed as cell-based, human. The procedure: The aggregation of endogenous monomeric αS-A53T-YFP into fibers can be detected by the intracellular fluorescent puncta (Fig. 3a, + αS). A solution of 100 μM αS was aggregated in the absence and presence of NS132 at an equimolar ratio for four days. The resulting solutions of αS fibers (5 μM in monomeric αS, ±NS132) were introduced to HEK cells in the presence of Lipofectamine 3000 for 24 h. In contrast to the control (no fibers), we observed a significant number of fluorescent inclusions in the presence of αS fibers (Fig. 3a, white arrows, +αS), which was a consequence of the templating of endogenous monomeric αS-A53T-YFP by the exogenously added αS fibers. […] Moreover, we observed the colocalization of an adaptor protein, p62, in the aggresome of αS inclusions in HEK cells (Fig. 3b, +αS, red),[51]–[54]. […] We also quantified the inclusions (αS-A53T-YFP) using a ProteoStat dye-based high throughput 96-well plate reader-based assay recently developed in our lab[24]. […] The viability of HEK cells was measured using the (3-(4,5-dimethylthiazol-2-yl)-2,5-diphenyltetrazolium bromide) (MTT) reduction based assay.
This assay was performed based on a previous protocol with slight modifications. […] The crystals were dissolved with gentle shaking of the plate, and subsequently, the absorbance was measured at 570 nm using an Infinite M200 Pro Plate Reader (Tecan, Grŏdig, Austria). […]

For data set [2], the target named is T1, αS monomer-αS fibers interaction (Homo sapiens, UniProt P37840).
T1 construct: purchased rpeptide, Bogart, GA
Kind of data set: HSQC NMR of 15N-αS monomer with αS fibers with or without NS132. The format is binding. As to conditions: 70 μM 15N-αS + αS fibers, equimolar NS132, 24 h. The procedure:
We also employed 2D NMR HSQC for atomic-level insights into fibers-catalyzed aggregation of αS and its inhibition by NS132. […] We have also shown that NS132 specifically interacts with the N-terminal residues of αS. […] We incubated preformed fibers of αS with 70 μM ^15N-^1H-uniformly labeled αS monomer and used HSQC NMR to characterize the kinetics of fibers-catalyzed aggregation of αS on a molecular level. […] Also, αS fibers interact specifically with four αS sequences on the N-terminus, including residues 3-23, 40-45, 49-59, and 75-84 (Fig. 4b,c). There was an induction of a secondary structure in the αS monomer, indicated by the spreading of the amide peaks toward the ^1H resonances (Fig. 4c, green). […] Even after 40 h, there were fewer and smaller changes in the volume intensity of the amide peaks of ^15N-^1H-uniformly labeled αS monomer in the presence of NS132 (Fig. 4f).
For the HSQC experiments titrating NS132 into ^15N αS, the same experimental conditions were used as above. Incrementally, NS132 was added to a single ^15N αS solution, mixed, kept at r.t. for 10 min and HSQC was recorded under the conditions stated above. For HSQC experiments containing pre-formed fibrils (PFF) of αS, 5.4 eq. of PFF solution (500 μM) was added to monomeric ^15N αS solution, and the spectra was recorded as previously stated.

For `Cc1ccc(NC(=O)c2ccc(NC(=O)c3ccc([N+](=O)[O-])c(NCCc4c[nH]c5ccccc45)n3)c(NCC3CCCCC3)n2)c(OCC(=O)O)n1` [NS132], the “intracellular ROS level in UA196 worms, in words” value with UA196 worms (50 µM ligand on day two and four, day eight) is reported as “low”. Also, the “ROS dye signal, Average” value amounted to 169.8 in the data set with UA196 worms (UA196+NS132, Time 0 min); 210.6 in the data set on UA196 worms (UA196+NS132, Time 60 min); 301.6 in the data set on UA196 worms (UA196+NS132, Time 120 min). In addition, the “relative viability of HEK cells, individual trials” value in data set [1] (HEK cells + Synuclein fibers aggregated with equimolar NS132, control = 1) is 0.8792 and 0.8235 and 0.899 and 0.8879 and 0.9679 and 0.8608 and 0.7821 and 0.8196 and 0.8279 and 0.7732 and 0.9011 and 0.8063 and 0.8583 and 0.8947 and 0.7357 and 0.8112. In addition, in data set [1] (αS aggregated solution with an equimolar ratio of NS132 (52% with αS alone)), the “viability of HEK cells” value is listed as 85%. In addition, the “change in the volume of the amide peaks of 15N-αS monomer with αS fibers, in words” value in data set [2] is reported as “no significant change”.
